# Structures can show the parent of a compound that is named as a salt. Where two headings read alike, the source gives them in different places. Marks after values point to notes of the source that are not given here.
# Assays:
# [1] = tested on: A/bald eagle/FL/2022 (H5N1); test: microbe, parasite or virus in culture; format: cell-based, influenza A(H5N1) virus; details: Influenza A virus
# [2] = tested on: clade 2.3.4.4b HPAI A(H5N1) viruses (B3.13 and D1.1); test: microbe, parasite or virus in culture; format: cell-based; details: for EC50: Influenza A virus, H5N1, read-out: 50% effective concentrations (EC50s), range over viruses
# [3] = tested on: A/Wisconsin/53/2009 (H1N1)pdm09; test: microbe, parasite or virus in culture; format: cell-based, influenza A(H1N1)pdm09 virus; details: Influenza A virus, H1N1, read-out: EC50 ± SD
# [4] = tested on: A/California/147/2024 (CA/147, wildtype); set-up: species or system BALB/c mice; details: mouse, in vivo; for Survival (%): po
# [5] = tested on: Genotype B3.13 viruses (n = 10); test: microbe, parasite or virus in culture; format: cell-based, influenza A(H5N1) virus; details: Influenza A virus, read-out: PA inhibitor EC50, median
# A/California/155/2024 = test: microbe, parasite or virus in culture; format: cell-based, influenza A(H5N1) virus; details: Influenza A virus, read-out: PA inhibitor EC50 ± SD
# [6] = tested on: Genotype D1.1 viruses (n = 7); test: microbe, parasite or virus in culture; format: cell-based, influenza A(H5N1) virus; details: Influenza A virus, read-out: PA inhibitor EC50, median
# A/California/147/2024 = test: microbe, parasite or virus in culture; format: cell-based, influenza A(H5N1) virus; details: Influenza A virus, read-out: PA inhibitor EC50 ± SD
# A/Nevada/10/2025 = test: microbe, parasite or virus in culture; format: cell-based, influenza A(H5N1) virus; details: Influenza A virus, read-out: PA inhibitor EC50 ± SD
# [7] = tested on: A/Louisiana/50/2017 (H3N2); test: microbe, parasite or virus in culture; format: cell-based; details: Influenza A virus, H3N2, read-out: PA inhibitor EC50 ± SD
# A/California/148/2024 = test: microbe, parasite or virus in culture; format: cell-based, influenza A(H5N1) virus; details: Influenza A virus, read-out: PA inhibitor EC50 ± SD
# A/California/153/2024 = test: microbe, parasite or virus in culture; format: cell-based, influenza A(H5N1) virus; details: Influenza A virus, read-out: PA inhibitor EC50 ± SD
# A/California/152/2024 = test: microbe, parasite or virus in culture; format: cell-based, influenza A(H5N1) virus; details: Influenza A virus, read-out: PA inhibitor EC50 ± SD
# [8] = tested on: A/Illinois/08/2018 (H1N1)pdm09; test: microbe, parasite or virus in culture; format: cell-based, influenza A(H1N1)pdm09 virus; details: Influenza A virus, H1N1, read-out: PA inhibitor EC50 ± SD
# A/California/151/2024 = test: microbe, parasite or virus in culture; format: cell-based, influenza A(H5N1) virus; details: Influenza A virus, read-out: PA inhibitor EC50 ± SD
# NA of A/Wyoming/01/2025 = NA of A/Wyoming/01/2025 (Influenza A virus, UniProt Q9Q0U7); format: biochemical, influenza A(H5N1) virus; details: read-out: NA inhibitor IC50 ± SD
# NA of A/Iowa/24/2024 = NA of A/Iowa/24/2024 (Influenza A virus, UniProt Q9Q0U7); format: biochemical, influenza A(H5N1) virus; details: read-out: NA inhibitor IC50 ± SD
# [9] = molecular target: NA of A/California/173/2024 (Influenza A virus, UniProt Q9Q0U7); format: biochemical, influenza A(H5N1) virus; details: read-out: NA inhibitor IC50 ± SD
# [10] = molecular target: NA of A/California/155/2024 (Influenza A virus, UniProt Q9Q0U7); format: biochemical, influenza A(H5N1) virus; details: read-out: NA inhibitor IC50 ± SD
# NA of A/Nevada/10/2025 = NA of A/Nevada/10/2025 (Influenza A virus, UniProt Q9Q0U7); format: biochemical, influenza A(H5N1) virus; details: read-out: NA inhibitor IC50 ± SD
# [11] = molecular target: NA of A/Illinois/08/2018 (H1N1)pdm09 (Influenza A virus, UniProt A0A0X9QTS2); format: biochemical; details: read-out: NA inhibitor IC50 ± SD
# [12] = molecular target: NA of A/Illinois/45/2019 (H1N1)pdm09 (Influenza A virus, UniProt A0A0X9QTS2); format: biochemical; details: read-out: NA inhibitor IC50 ± SD
# [13] = molecular target: NA of A/California/152/2024 (Influenza A virus, UniProt Q9Q0U7); format: biochemical, influenza A(H5N1) virus; details: read-out: NA inhibitor IC50 ± SD
# [14] = molecular target: recNA A/California/148/2024 (genotype B3.13) WT (Influenza A virus, UniProt Q9Q0U7); format: biochemical, influenza A(H5N1) virus
# [15] = molecular target: NA of A/California/147/2024 (Influenza A virus, UniProt Q9Q0U7); format: biochemical, influenza A(H5N1) virus; details: read-out: NA inhibitor IC50 ± SD
# [16] = molecular target: NA of A/bald eagle/FL/2022 (H5N1) (Influenza A virus, UniProt Q9Q0U7); format: biochemical; details: read-out: NA inhibitor IC50 ± SD
# [17] = molecular target: NA of A/California/153/2024 (Influenza A virus, UniProt Q9Q0U7); format: biochemical, influenza A(H5N1) virus; details: read-out: NA inhibitor IC50 ± SD
# [18] = molecular target: NA of A/California/151/2024 (Influenza A virus, UniProt Q9Q0U7); format: biochemical, influenza A(H5N1) virus; details: read-out: NA inhibitor IC50 ± SD
# [19] = molecular target: NA of A/Louisiana/50/2017 (H3N2) (Influenza A virus, UniProt A0A193ACB1); format: biochemical; details: read-out: NA inhibitor IC50 ± SD
# [20] = molecular target: recNA A/Washington/239/2024 (genotype D1.1) WT (Influenza A virus, UniProt Q8QPK2); format: biochemical, influenza A(H5N1) virus
# [21] = molecular target: NA of A/California/148/2024 (Influenza A virus, UniProt Q9Q0U7); format: biochemical, influenza A(H5N1) virus; details: read-out: NA inhibitor IC50 ± SD
# [22] = molecular target: NA of Genotype B3.13 viruses (n = 10) (Influenza A virus, UniProt Q9Q0U7); format: biochemical, influenza A(H5N1) virus; details: read-out: NA inhibitor IC50, median
# [23] = molecular target: NA of Genotype D1.1 viruses (n = 7) (Influenza A virus, UniProt Q9Q0U7); format: biochemical, influenza A(H5N1) virus; details: read-out: NA inhibitor IC50, median
molecule,measurement,setting,value
"NC12CC3CC(CC(C3)C1)C2 [Amantadine, amantadine hydrochloride]",EC50,"[1]; H5N1, read-out: EC50 ± SD",20.5 ± 4.96 ng/mL
same,EC50,[2],9.25 to 21.5 ng/mL
same,EC50,[3],25.9 ± 1.51 ng/mL
"COC(=O)OCOc1c2n(ccc1=O)N([C@@H]1c3ccccc3SCc3c1ccc(F)c3F)[C@@H]1COCCN1C2=O [Baloxavir marboxil, baloxavir marboxil]",Mean TTD (day),[4]; 5 mg/kg,11^c day
same,"Wt. Loss (%), mean maximum weight loss",[4]; 5 mg/kg,5%
same,"Wt. Loss (%), mean maximum weight loss",[4]; 15 mg/kg,6%
same,"Wt. Loss (%), mean maximum weight loss",[4]; 45 mg/kg,4%
same,Survival (%),[4]; 5 mg/kg,7/8 (87.5) %
same,Survival (%),[4]; 15 mg/kg,8/8 (100) %
same,Survival (%),[4]; 45 mg/kg,8/8 (100) %
"O=C1c2c(O)c(=O)ccn2N([C@@H]2c3ccccc3SCc3c2ccc(F)c3F)[C@@H]2COCCN12 [Baloxavir, baloxavir acid]",EC50,"[1]; H5N1, read-out: PA inhibitor EC50 ± SD",0.39 ± 0.16 nM
same,"EC50s, in words",[2],sub-nanomolar
same,EC50,[5],0.5 nM
same,EC50,A/California/155/2024,0.41 nM
same,EC50,[6],0.34 nM
same,EC50,A/California/147/2024,0.4 nM
same,EC50,A/Nevada/10/2025,0.34 nM
same,EC50,[7],0.8 ± 0.28 nM
same,EC50,A/California/148/2024,0.26 nM
same,infectious virus in any organs of treated mice,[4],not detected
same,loss of initial weight,[4]; 5 mg/kg,≤ 6%
same,Survival (%),[4]; 5 mg/kg,87.5%
same,EC50,A/California/153/2024,0.59 nM
same,EC50,A/California/152/2024,0.45 nM
same,EC50,[8],0.96 ± 0.37 nM
same,EC50,A/California/151/2024,0.72 nM
"CC(N)C12CC3CC(CC(C3)C1)C2 (stereo not drawn) [Rimantadine, rimantadine]",EC50,"[1]; H5N1, read-out: EC50 ± SD",5.74 ± 1.31 ng/mL
same,EC50,[2],3.14 to 6.48 ng/mL
same,EC50,[3],6.08 ± 0.9 ng/mL
"CC(=O)N[C@H]1[C@H]([C@H](O)[C@H](O)CO)OC(C(=O)O)=C[C@@H]1N=C(N)N [Zanamivir, zanamivir]",IC50,NA of A/Wyoming/01/2025,0.46 nM
same,IC50,NA of A/Iowa/24/2024,0.34 nM
same,IC50,[9],0.23 nM
same,IC50,[10],0.16 nM
same,IC50,NA of A/Nevada/10/2025,0.36 nM
oseltamivir carboxylate,IC50,[11],0.34 ± 0.03 nM
same,IC50,[12],0.28 ± 0.04 nM
peramivir,IC50,[13],0.08 nM
same,IC50,NA of A/Wyoming/01/2025,0.07 nM
same,IC50,[14],0.08 nM
same,IC50,[15],0.07 nM
same,IC50,[16],0.08 ± 0.02 nM
same,IC50,[17],0.06 nM
same,IC50,NA of A/Iowa/24/2024,0.07 nM
same,IC50,[18],0.07 nM
same,IC50,[19],0.07 ± 0.01 nM
same,IC50,[20],0.06 nM
same,IC50,[9],0.06 nM
same,IC50,[10],0.08 nM
same,IC50,[21],0.07 nM
same,IC50,[11],0.04 ± 0.01 nM
same,IC50,[22],0.07 nM
same,IC50,NA of A/Nevada/10/2025,0.07 nM
same,IC50,[12],0.04 ± 0.01 nM
same,IC50,[23],0.07 nM
